# Test results: publication PMC9867347, “An Acid-Sensitive Bone Targeting Delivery System Carrying Acacetin Prevents Osteoporosis in Ovariectomized Mice” (Pharmaceuticals, 2022)
# Ends that are not written are not given here.
# Assays:
# [1] = tested on: BMMs stimulated with RANKL and M-CSF; test: TRAP staining, osteoclast differentiation; format: cell-based, C57BL/6J mice; details: 7 days
# Method: In brief, the hind limbs of C57BL/6J mice were used to isolate bone marrow cells and cultured in α-MEM containing 10% FBS and 1% penicillin-streptomycin for one day to generate BMMs as described previously; 25 ng/mL […] Systems, Minneapolis, MN, USA) and 50 ng/mL […] Systems, Minneapolis, MN, USA) were used for the preparation of osteoclasts. […] TRAP-positive multinucleated osteoclasts (≥3 nuclei) were counted using a TRAP kit (Zhejiang Zhuoteng Biological, Shaoxing, China) according to the manufacturer's instructions. BMMs were induced by RANKL (50 ng/mL) and M-CSF (25 ng/mL) in the presence of acacetin (25 μM) and rapamycin (50 nmol/L) for 7 days. TRAP-positive multinucleated osteoclasts (≥3 nuclei) were counted.
# LC3II = test: Western blotting, LC3II (autophagy); format: cell-based, C57BL/6J mice; details: BMMs, RANKL and M-CSF, 6 h
# Method: (§1) RIPA lysate (50 × protease inhibitor, 50 × phosphatase inhibitor) was used to extract total protein from the cells. Then, 20 μg protein or protein marker per lane (PageRuler ™ (ThermoFisher Scientific, Waltham, MA, USA) Prestained Protein Ladder 10kD-180KD or HiMark™ (ThermoFisher Scientific, Waltham, MA, USA) Pre-stained Protein Standard 31 kd-460 kd) was loaded onto an SDS gel (30% Acrylamide, 1.5 M Tris-HCl, 10% SDS, 10% Ammonium persulfate and TEMED) and subjected to electrophoresis and transferred to a polyvinylidene fluoride membrane. The membrane was blocked with 5% BSA for 4 h and incubated with the specific primary antibody overnight at 4 °C. Then, the membrane was incubated with a secondary antibody (IRDye) for 1 h at room temperature. Bio-Rad ChemiDoc MP imaging system (Bio-Rad Laboratories, Hercules, CA, USA) was used to visualize protein bands and ImageJ software was used to calculate relative protein expression based on grayscale blots.
# (§2) Antibodies including p-AKT (Ser473; #4060), AKT (#4691), LC3A/B Antibody (#4108), p-mTOR (Ser2448; #5536), mTOR (#2983), c-Fos (#2250), NFATc1 (#8032), p-PI3K (#4228), PI3K (#4249), and GAPDH (#5174) were purchased from Cell Signalling Technology (Denver, MA, USA).
# PI3K/AKT/mTOR pathway = test: Western blotting, PI3K/AKT/mTOR phosphorylation; format: cell-based, C57BL/6J mice; details: BMMs, RANKL and M-CSF, acacetin 25 μM, 6 h, n = 3
# Method: as §1, §2
# [2] = plasma, after intravenous administration; cited from earlier work
# Source text: (§3) Osteoporosis following the estrogen withdrawal of menopause is a serious global clinical problem with a significant increase in the risk of fractures. Supplementation of estrogen is not recommended for the long-term treatment of postmenopausal bone loss because of the increased risk of breast cancers and cardiovascular events. Pure compounds isolated from natural products are emerging as potential therapeutics for postmenopausal osteoporosis. Acacetin is a di-hydroxy and mono-methoxy flavone widely distributed in various plants including the Acacia tree, black locust, and ...
# [3] = tested on: ovariectomized (OVX) mice; details: 20 mg/kg/day for 8 weeks; ref 11 (Lin et al.); cited from earlier work
# Source text: as §3
# OVX mice = test: OVX mouse model of osteoporosis; format: in vivo, C57BL/6J mice; details: for anti-osteoporotic effects (OVX-induced bone loss; BMD and BV/TV, micro-CT of tibia): i.p. 5 mg/kg/3 day for 5 weeks
# c-Fos and NFATc1 = test: Western blotting, c-Fos and NFATc1; format: cell-based, C57BL/6J mice; details: BMMs, RANKL and M-CSF, 3 days
# Method: as §1, §2
# [4] = tested on: mRNA expression of TRAP, NFATc1, and CTSK; test: RT-PCR of osteoclast genes; format: cell-based, C57BL/6J mice; details: BMMs, RANKL and M-CSF, 12.5, 25 μM, 3 days, n = 3
# Method: The total RNA was extracted from cells or tissues using TRIzol reagent (Thermo Fisher Scientific, Waltham, MA, USA) according to the manufacturer’s instructions. PrimeScript^TM RT Master Mix (RR036Q, Takara, San Jose, CA, USA) was used to reverse transcribe 1 μg of total RNA extracted into complementary DNA (cDNA) for subsequent RT-PCR reactions using qTOWER real-time PCR thermal cycler (Analytik Jena, Jena, Germany).
# [5] = tested on: BMMs stimulated with RANKL and M-CSF; test: Bone resorption assay (Osteo Assay Surface plate); format: cell-based, C57BL/6J mice
# Method: In brief, the hind limbs of C57BL/6J mice were used to isolate bone marrow cells and cultured in α-MEM containing 10% FBS and 1% penicillin-streptomycin for one day to generate BMMs as described previously; 25 ng/mL M-CSF (416-ML-010/CF, R&D Systems, Minneapolis, MN, USA) and 50 ng/mL RANKL (462-TR-010/CF, R&D Systems, Minneapolis, MN, USA) were used for the preparation of osteoclasts.
# Assays for bone resorption were performed using Corning Osteo Assay Surface plate (Sigma-Aldrich, Hongkong, China). We analyzed bone resorption pits with a light microscope and quantified pits area using Image J software (NIH, Bethesda, MD, USA).
# BMMs = test: Cytotoxicity assay (CCK-8); format: cell-based, C57BL/6J mice; details: 48 h and 96 h, CCK-8, n = 6
# Method: In brief, the hind limbs of C57BL/6J mice were used to isolate bone marrow cells and cultured in α-MEM containing 10% FBS and 1% penicillin-streptomycin for one day to generate BMMs as described previously; 25 ng/mL […] Systems, Minneapolis, MN, USA) and 50 ng/mL […] Systems, Minneapolis, MN, USA) were used for the preparation of osteoclasts. […] The medium was changed every 2 days. After 48 h and 96 h of culture, CCK8 reagent (10 μL/well, Dojindo, Kumamoto, Japan) was added to each well. Then, the cells were incubated in darkness at 37 °C for 2 h. The absorbance was recorded using a microplate reader (Thermo Fisher Scientific, Waltham, MA, USA) at 450 nm.
# [6] = Hydroxyapatite (HA) binding assay; details: 800 μM, 4 mM sodium phosphate, 150 mM sodium chloride, pH 7.4, 15 mg HA, 37 °C, 0-80 min, HPLC
# Method: Acacetin-EMCH-D6 and acacetin were dissolved, respectively, in a buffer containing 4 mM sodium phosphate and 150 mM sodium chloride (pH = 7.4), to a final concentration of 800 μM; 15 mg of HA was added and incubated in a 37 °C water bath; 20 μL aliquots were taken after 0, 10, 20, 40, and 80 min and quantified by HPLC.
# [7] = statement of the design section, reference not given; cited from earlier work
# Source text: The next step is the identification of bone-targeting peptides. Bone tissue, as a special connective tissue, consists of a variety of cells and intercellular bone matrix, with high inorganic salt content which is mainly composed of HA. In recent years, more and more peptide sequences with excellent bone-targeting ability have been discovered. Compared with bone-targeting small molecules, these peptides have more specific mechanisms, high affinity and low side effects. Considering that acacetin has an excellent inhibitory effect on osteoclasts, we selected […] ...
# [8] = i.p. 17.5 μmol/kg every 3 days for 5 weeks
# [9] = i.p. 17.5 μmol/kg every 3 days for 5 weeks, n = 6
# [10] = acacetin 25 μM and rapamycin 50 nmol/L
# [11] = Acacetin-EMCH-D6 17.5 μmol/kg and rapamycin 1 mg/kg i.p. every 3 days, 5 weeks, at least in part
# [12] = Acacetin-EMCH-D6 17.5 μmol/kg and rapamycin 1 mg/kg i.p. every 3 days, 5 weeks, proximal tibia
compound,measurement,setting,value
COc1ccc(-c2cc(=O)c3c(O)cc(O)cc3o2)cc1 [acacetin],number of TRAP-positive osteoclasts (nuclei ≥ 3),"[1]; RANKL 50 ng/mL and M-CSF 25 ng/mL, 12.5, 25 μM, n = 3",significantly diminished
same,RANKL+M-CSF-induced increase of LC3II protein levels,"LC3II; acacetin 25 μM, n = 3",reversed
same,RANKL+M-CSF-induced reduction of AKT phosphorylation,PI3K/AKT/mTOR pathway,reversed
same,RANKL+M-CSF-induced reduction of PI3K phosphorylation,PI3K/AKT/mTOR pathway,reversed
same,RANKL+M-CSF-induced reduction of mTOR phosphorylation,PI3K/AKT/mTOR pathway,reversed
same,terminal half-life,[2],1.48 h
same,bone loss in ovariectomized (OVX) mice,[3],protected against bone loss
same,"BMD, proximal tibia and L5 vertebra (micro-CT), OVX-induced change",OVX mice; [8],no significant effect
same,"BV/TV, proximal tibia and L5 vertebra (micro-CT), OVX-induced change",OVX mice; [8],no significant effect
same,"Tb.N, proximal tibia and L5 vertebra (micro-CT), OVX-induced change",OVX mice; [8],no significant effect
same,"Tb.Sp, proximal tibia and L5 vertebra (micro-CT), OVX-induced change",OVX mice; [8],no significant effect
same,"number of TRAP-positive cells, proximal tibia (OVX-induced increase)",OVX mice; [8],did not affect the histological changes
same,plasma CTX-1 levels,OVX mice; [9],no significant effect
same,"trabecular density and thickness, proximal tibia (H&E staining)",OVX mice; [9],did not affect the histological changes
same,"anti-osteoporotic effects (OVX-induced bone loss; BMD and BV/TV, micro-CT of tibia)","OVX mice; n = 6, Figure S1, 5 mg/kg",did not observe its anti-osteoporotic effects
same,"anti-osteoporotic effects (OVX-induced bone loss; BMD and BV/TV, micro-CT of tibia)","OVX mice; n = 6, Figure S1, listed as Acacetin, 5 mg/kg",no effect on OVX-induced bone loss
same,protein expression of NFATc1,c-Fos and NFATc1; acacetin 25 μM,downregulated
same,protein expression of c-Fos,c-Fos and NFATc1; acacetin 25 μM,downregulated
same,mRNA expression of CTSK,[4],suppressed
same,mRNA expression of NFATc1,[4],suppressed
same,mRNA expression of TRAP,[4],suppressed
same,area of bone resorption pits,"[5]; RANKL 50 ng/mL and M-CSF 25 ng/mL, 12.5, 25 μM added for 3 days after immature osteoclasts formed, n = 3",significantly diminished
same,cell viability,BMMs; dose more than 50 μM,reduced cell viability
same,cell viability,"BMMs; dose of 6.25, 12.5, and 25 μM",did not affect cell viability
same,binding to hydroxyapatite (HA),[6],very weak binding
CO[C@H]1C[C@@H]2CC[C@@H](C)[C@@](O)(O2)C(=O)C(=O)N2CCCC[C@H]2C(=O)O[C@H]([C@H](C)C[C@@H]2CC[C@@H](O)[C@H](OC)C2)CC(=O)[C@H](C)/C=C(\C)[C@@H](O)[C@@H](OC)C(=O)[C@H](C)C[C@H](C)/C=C/C=C/C=C/1C [rapamycin],effect of rapamycin co-treatment on inhibition of osteoclast differentiation by acacetin (TRAP assay),"[1]; RANKL and M-CSF, acacetin 25 μM and rapamycin 50 nmol/L",partly reversed
same,effect of rapamycin co-treatment on inhibition of LC3II protein levels by acacetin,LC3II; [10],abolished
same,effect of rapamycin co-treatment on BMD augmentation by Acacetin-EMCH-D6,OVX mice; [11],reversed
same,effect of rapamycin co-treatment on BV/TV augmentation by Acacetin-EMCH-D6,OVX mice; [11],reversed
same,effect of rapamycin co-treatment on Tb.N augmentation by Acacetin-EMCH-D6,OVX mice; [11],reversed
same,effect of rapamycin co-treatment on Tb.Sp reduction by Acacetin-EMCH-D6,OVX mice; [11],reversed
same,effect of rapamycin co-treatment on reduction of LC3 dots by Acacetin-EMCH-D6,OVX mice; [12],partly reversed
same,effect of rapamycin co-treatment on reduction of TRAP-positive osteoclasts by Acacetin-EMCH-D6,OVX mice; [12],partly reversed
same,effect of rapamycin co-treatment on downregulation of NFATc1 protein by acacetin,c-Fos and NFATc1; [10],partially reversed
same,effect of rapamycin co-treatment on downregulation of c-Fos protein by acacetin,c-Fos and NFATc1; [10],partially reversed
same,effect of rapamycin co-treatment on inhibition of bone resorption by acacetin,"[5]; RANKL and M-CSF, acacetin 25 μM and rapamycin 50 nmol/L, 3 days",partly reversed
"DDDDDD [D6, medium-length polyaspartic acid, bone targeting peptide]",HA affinity,[7],comparable to tetracycline and calcein
